1 compound from patent US4883807A, “1,2,5,6-tetrahydropyridyl triazoles and tetrazoles useful as fungicides” (Imperial Chemical Industries PLC, priority 1986, dated 1989) can be followed below.

One assay has as its system Phytophthora infestans. In kind it is in vivo. To be noted: 100 ppm foliar spray plus root drench ca. 40 ppm a.i./dry soil, one or two days before inoculation.
The subject of the next assay is Musca domestica. Put plainly: whole plant or invertebrate. As to conditions: 24 h, read-out: grading of mortality, MD.
The next assay has as its system Pyricularia oryzae. It is filed as in vivo. To be noted: 100 ppm foliar spray plus root drench ca. 40 ppm a.i./dry soil, one or two days before inoculation.
A further assay concerns Diabrotica balteata. Put plainly: whole plant or invertebrate. To be noted: in Zea mays, 72 h, read-out: grading of mortality, DB.
Another assay deals with Blattella germanica. Nature of the assay: whole plant or invertebrate. As to conditions: 72 h, read-out: grading of mortality, BG.
The test system of a further assay is Meloidogyne incognita. Nature of the assay: nematode test, tomato root knot eelworm - larvae, semi in-vitro. In kind it is in vivo. To be noted: 250 ppm, residual, 7 days. The protocol: (§1) The activity of the compounds was determined using a variety of insect, mite and nematode pests. The compounds were used in the form of liquid preparations containing 500 parts per million (ppm) by weight of the compound except for the test on Meloidogyne incognita when liquid preparations of 250 ppm by weight were used. The preparations were made by dissolving the compounds in acetone and diluting the solutions with water containing 0.1% by weight of a wetting agent sold under the trade name "SYNPERONIC" NX until the liquid preparations contained the required concentration of the product. "SYNPERONIC" is a Registered Trade Mark.
(§2) The test procedure adopted with regard to each pest was basically the same and comprised supporting a number of the pests on a medium which was usually a host plant or a foodstuff on which the pests feed, and treating either or both the pests and the medium with the preparations. The mortality of the pests was then assessed at periods usually varying from one to seven days after the treatment.
(§3) The results of the tests are given in Table IX for each of the products as a grading of mortality designated as 9, 5 or 0 where 9 indicates 80-100% mortality (70-100% root-knot reduction as compared with untreated plants for Meloidogyne incognita), 5 indicates 50-79% mortality (50-69% root knot reduction for Meloidogyne incognita) and 0 indicates less than 50% mortality (root-knot reduction for Meloidogyne incognita).
(§4) In Table IX the pest organism used in designated by a letter code and the pests species, the support medium or food, and the type and duration of test is given in Table VII.

The next assay concerns Plasmopara viticola. Put plainly: foliar fungal disease control on plants, Plasmopara viticola on vine. It is filed as in vivo. To be noted: 100 ppm foliar spray plus root drench ca. 40 ppm a.i./dry soil, one or two days before inoculation. The procedure:
(§5) The technique employed was as follows.
(§6) The plants were grown in John Innes Potting Compost (No. 1 or 2) in 4 cm diameter minipots. The test compounds were formulated either by bead milling with aqueous Dispersol T or as a solution in acetone or acetone/ethanol which was diluted to the required concentration immediately before use. For the foliage diseases, the formulations (100 ppm active ingredient) were sprayed on to the foliage and applied to the roots of the plants in the soil. The sprays were applied to maximum retention and the root drenches to a final concentration equivalent to approximately 40 ppm a.i./dry soil. Tween 20, to give a final concentration of 0.05%, was added when the sprays were applied to cereals.
(§7) For most of the tests the compound was applied to the soil (roots) and to the foliage (by spraying) one or two days before the plant was inoculated with the disease. An exception was the test on Erysiphe graminis in which the plants were inoculated 24 hours before treatment. Foliar pathogens were applied by spray as spore suspensions onto the leaves of test plants. After inoculation, the plants were put into an appropriate environment to allow infection to proceed and then incubated until the disease was ready for assessment. The period between inoculation and assessment varied from four to fourteen days according to the disease and environment.
(§8) The disease control was recorded by the following grading: […]

A further assay has as its system Heliothis virescens. Put plainly: insecticidal test, tobacco budworm - larvae. It is filed as in vivo. To be noted: in Gossypium hirsutum, 72 h, read-out: grading of mortality, HV. The procedure: as §1, §2, §3, §4
The subject of another assay is Myzus persicae. Nature of the assay: whole plant or invertebrate. To be noted: in Brassica rapa, 72 h, read-out: grading of mortality, MP.
Another assay concerns Cercospora arachidicola. Nature of the assay: foliar fungal disease control on plants, Cercospora arachidicola on peanut. It is filed as in vivo. As to conditions: 100 ppm foliar spray plus root drench ca. 40 ppm a.i./dry soil, one or two days before inoculation. The procedure:
as §5, §6, §7, §8

Assay [1] concerns Tetranyhus urticae (spider mites - ova). Put plainly: whole plant or invertebrate. To be noted: 144 h, read-out: grading of mortality, TUe.
In assay [2] the test system is Tetranychus urticae (spider mites - adult). Nature of the assay: whole plant or invertebrate. As to conditions: in Phaseolus vulgaris, 72 h, read-out: grading of mortality, TUa.
The test system of another assay is Erysiphe graminis. Put plainly: foliar fungal disease control on plants, Erysiphe graminis on barley. In kind it is in vivo. To be noted: 100 ppm foliar spray plus root drench ca. 40 ppm a.i./dry soil; inoculated 24 hours before treatment. The protocol: as §5, §6, §7, §8
The subject of a further assay is Nephotettix cincticeps. Put plainly: whole plant or invertebrate. To be noted: in Oryza sativa, 72 h, read-out: grading of mortality, NC.
For a further assay, the system named is Puccinia recondita. Put plainly: foliar fungal disease control on plants, Puccinia recondita on wheat. In kind it is in vivo. To be noted: 100 ppm foliar spray plus root drench ca. 40 ppm a.i./dry soil, one or two days before inoculation. The procedure:
as §5, §6, §7, §8

A further assay deals with Venturia inaequalis. Put plainly: foliar fungal disease control on plants, Venturia inaequalis on apple. In kind it is in vivo. To be noted: 100 ppm foliar spray plus root drench ca. 40 ppm a.i./dry soil, one or two days before inoculation. The protocol:
as §5, §6, §7, §8

Bounds are passed on as bounds.

`CO/C=C(/C(=O)OC)n1cccc1/C=C/C(=O)OC`: in the assay with Phytophthora infestans, the “disease control grading, PH[…] (TOMATOES)” value is given as 4. For the same compound, the mortality (in general, the share of the test organisms that died) at 500 ppm is less than 50% in the assay on Musca domestica; less than 50% in the assay with Diabrotica balteata; 80 to 100% in the assay on Blattella germanica; less than 50% in the assay with Heliothis virescens; less than 50% in the assay on Myzus persicae; less than 50% in [1]. Also, the mortality at 500 ppm in [2] was in the range of 80 to 100%; in the assay on Nephotettix cincticeps, 50 to 79%. Also, the “disease control grading, P[…] (Rice)” value with Pyricularia oryzae was found to be 4. Also, the “grading of root-knot reduction, MI” value with Meloidogyne incognita is on record as 0 (less than 50% mortality (root-knot reduction for Meloidogyne incognita)). Besides, in the assay on Plasmopara viticola, the “disease control grading, […] (Vine)” value was 4. In addition, the “disease control grading, CERCOSPCRA ARACHIDICOLA (Peanut)” value in the assay with Cercospora arachidicola is reported as 2 (6-25% of disease on untreated plants). For the same compound, the “disease control grading, ERYSIPHE GRAMINIS (Barley)” value with Erysiphe graminis turned out to be 4. Also, the “disease control grading, PUCCINIA RECONDITA (Wheat)” value in the assay with Puccinia recondita worked out at 4. Also, the “disease control grading, VENTURIA INAEQUALIS (Apple)” value in the assay on Venturia inaequalis worked out at 4.
